In PMC6107127, “Characteristics of the mitochondrial and cellular uptake of MPP^+, as probed by the fluorescent mimic, 4'I-MPP^+” (PLoS ONE, 2018):

How the values were obtained:
HepG2 cells [1] = assay: Cellular uptake of MPP+ and 4'I-MPP+ (HPLC-UV / fluorescence); assay type: cell-based, human; details: 100 μM toxin, 40 min
Procedure: Cells were seeded into 12-well plates at 0.25 x 10^6 cells/well and grown 2–3 days to about 70–80% confluency. The media was removed and a solution containing 100 μM MPP^+ or 4'I-MPP^+ in warm KRB-HEPES (or without Ca^2+ and with 1.4 mM EGTA) was added to each well and incubated at 37 °C for the desired period of time (see Figure legends for further details). After the incubations, the media were removed and cells were washed with ice-cold KRB-HEPES. Washed cells were suspended in 1.0 mL of ice-cold KRB-HEPES and 50 μL aliquots were withdrawn for protein determination. The remaining cell suspensions were centrifuged at 5000 x g at 4 °C for 5 min and the cell pellets were treated with 75 μL of 0.1 M HClO4. The coagulated proteins were pelleted by centrifugation at 13,200 x g at 4 °C for 8 min and the MPP^+ or 4'I-MPP^+ contents of the supernatants were determined by C18-reversed-phase HPLC-UV (HPLC-UV) as previously described using standard curves constructed from authentic standards. The standard curves for HPLC-UV quantifications were constructed using authentic samples of MPP^+ and 4'I-MPP^+ under the same HPLC-UV separation conditions (S1 Fig).
To quantify 4'I-MPP^+ uptake by fluorescence, MN9D or HepG2 cells grown in glass bottomed plates, washed, and reconstituted with KRB-HEPES (1.0 mL), pH 7.4, and mounted on the stage of a Nikon ECLIPSE Ti-S inverted fluorescence microscope. […]

HepG2 cells [2] = assay: MTT cell viability assay; assay type: cell-based, human
Procedure: Cell viability was determined by the MTT [3-(4,5-dimethylthiazol-2-yl)-2,5-diphenyltetrazolium bromide)] assay. Briefly, cells were seeded on 96-well plates and allowed to grow to about 70–80% confluence. Prior to the experiment, culture media was replaced with KRB-HCO3^- containing desired concentrations of MPP^+ or 4'I-MPP^+ and incubated for 16 h at 37 °C. After the incubation, 10 μL of 5 mg/mL MTT solution was added to each well and incubated for 2 h at 37 °C. The resulting formazan was solubilized by the addition of 210 μL detergent solution [50% DMF/H2O (v/v), 20% SDS (w/v)] followed by incubation at 37 °C for 12 h. The cell viabilities were determined by quantifying solubilized formazan by measuring the difference in the absorbance at 570 nm and 650 nm. Results were expressed as % viability of MPP^+ or 4'I-MPP^+ treated cells with respect to control cells, which were treated under the same conditions except in the absence of the MPP^+ or 4'I-MPP^+.

MN9D cells = assay: Chromatin condensation test for apoptosis (DAPI); assay type: cell-based, mouse; details: 250 μM, 12 h
Procedure: MN9D cells grown in glass-bottomed plates were treated with 250 μM MPP^+ or 4'I- MPP^+ for 12 h and then with 300 nM DAPI in KRB-HEPES for 15 min in the dark at 37 °C [24]. Then cells were rinsed and PBS was added to cover the cell layer. Increase in nuclear DAPI fluorescence (Ex/Em at 358/461 nm) due to chromatin condensation was observed using a Nikon ECLIPSE Ti-S inverted fluorescence microscope. The controls were treated similarly except that MPP^+ or 4'I-MPP^+ was omitted from the initial incubation medium.

[3] = system: isolated MN9D cell mitochondria; assay: Uptake into isolated MN9D cell mitochondria; set-up: species or system mouse; details: 400 μM, 45 min at 37 °C
Procedure: Intact mitochondria were isolated from MN9D cells according to the published procedure of Frezza et al.. The isolated intact mitochondrial preparations were suspended in KCl buffer and aliquots (5 μL) were withdrawn for protein determination. Desired amounts of mitochondrial suspensions were incubated with 400 μM MPP^+ or 4'I-MPP^+ in KCl buffer for 45 min at 37 °C. After the incubation, incubates were centrifuged at 7,000 x g at 4 °C for 10 min and the mitochondrial pellets were treated with 75 μL of 0.1 M HClO4.

MN9D or HepG2 cells = assay: Mitochondrial membrane potential depolarization (TMRM); assay type: cell-based; details: 100 μM
Procedure: MN9D or HepG2 cells grown in glass-bottomed plates were treated with 50 nM TMRM (AnaSpec, Fremont CA, USA) in KRB-HEPES for 45 min in the dark. After mounting on the stage of a Nikon ECLIPSE Ti-S inverted fluorescence microscope, 15–20 ROIs with uniform fluorescence were selected and TMRM fluorescence at Ex/Em at 543/573 nm was recorded at 5 sec time intervals for 3 min. Then, MPP^+ or 4'I-MPP^+ was added to a final concentration of 500 or 100 μM, respectively and TMRM fluorescence measurements were continued for an additional 40 min for MPP^+ and 15 min for 4'I-MPP^+ at 15 sec time intervals. The background fluorescence was subtracted from the ROI fluorescence and averages of corrected data were used to estimate the magnitude of the mitochondrial membrane potential.

## C[n+]1ccc(-c2ccc(I)cc2)cc1 [4'I-MPP^+, 1-methyl-4-(4'-iodophenyl)pyridinium]
HepG2 cells [1]
  cellular uptake in 40 min: 1.4 nmoles/mg of protein
HepG2 cells [2]; MPP+ at 0–1000 μM, 4'I-MPP+ at 0–200 μM, 16 h
  HepG2 cell toxicity: resistant
HepG2 cells [2]; rough estimates, data not shown
  concentration above which toxic to HepG2 cells: above 250 μM
MN9D cells
  apoptotic cell death (chromatin condensation): cause apoptotic MN9D cell death
[3]
  rate of uptake into isolated mitochondria: faster than that of MPP^+
MN9D or HepG2 cells
  time to depolarize the mitochondrial membrane by 20–50%: 20 min
